Experimental data: patent US20240050428A1 (Cullgen (Shanghai), Inc., priority 2020, published 2024)
Like-named read-outs stand apart in the source and are kept apart here.

Tests used:
[1] = tested on: tested cell lines; details: tested cell lines (Matyskiela, Lu et al. 2016); cited from earlier work
[2] = target: GSPT1 (Homo sapiens, UniProt P15170+Q96SW2); details: cereblon-dependent; also other targets such as IKZF1 and IKZF3 (Matyskiela, Lu et al. 2016); cited from earlier work
[3] = tested on: MOLM-13 cells; test: Cell viability assay (CellTiter-Glo) in MOLM-13 cells, alone or with gilteritinib; type: cell-based; details: MOLM-13 cells; for IC50: Homo sapiens, MOLM-13, 72 h, CellTiter-Glo; for Sensitivity of FLT3-mutant AML cells to GSPT1 degrader upon FLT3 inhibition: with or without 20 nM gilteritinib, 3 days (FIG. 2A-2C)
[4] = tested on: MOLM-13 cells; test: Cell viability / cell growth inhibition of MOLM-13 cells, GSPT1 degrader with or without gilteritinib; type: cell-based; details: combined with FLT3 inhibitor gilteritinib (20 nM in FIG. 2A-2C)
Experimental: FIG. 2A is a graph of cell viability in MOML-13 cells treated with varying doses of GS-002, with or without gilteritinib at 20 nM.
FIG. 2B is a graph of cell viability in MOML-13 cells treated with varying doses of GS-005, with or without gilteritinib at 20 nM.
FIG. 2C is a graph of cell viability in MOML-13 cells treated with varying doses of GS-006, with or without gilteritinib at 20 nM.
When combined with FLT3 inhibitor gilteritinib, the potency of some of the compounds was increased synergistically.

[5] = tested on: MV4;11 cells; test: Cell viability assay (CellTiter-Glo) in MV4;11 cells, alone or with gilteritinib; type: cell-based; details: Homo sapiens, MV4-11, 72 h, MV4;11 cells, CellTiter-Glo, read-out: MV4
[6] = with 20 nM gilteritinib, 3 days, read-out: MOLM-13 IC50 gilteritinib
[7] = without gilteritinib, 3 days, read-out: MOLM-13 IC50
[8] = with 10 nM gilteritinib, 3 days, 11 IC50 gilteritinib
[9] = without gilteritinib, 3 days, 11 IC50
[10] = compound alone (without gilteritinib), three days, read-out: MOLM-13 IC50
[11] = compound with gilteritinib 20 nM, three days, read-out: MOLM-13 IC50 gilteritinib
[12] = compound alone (without gilteritinib), three days, 11 IC50
[13] = compound with gilteritinib 10 nM, three days, 11 IC50 gilteritinib

Chain of GSPT1 (P15170 whole entry): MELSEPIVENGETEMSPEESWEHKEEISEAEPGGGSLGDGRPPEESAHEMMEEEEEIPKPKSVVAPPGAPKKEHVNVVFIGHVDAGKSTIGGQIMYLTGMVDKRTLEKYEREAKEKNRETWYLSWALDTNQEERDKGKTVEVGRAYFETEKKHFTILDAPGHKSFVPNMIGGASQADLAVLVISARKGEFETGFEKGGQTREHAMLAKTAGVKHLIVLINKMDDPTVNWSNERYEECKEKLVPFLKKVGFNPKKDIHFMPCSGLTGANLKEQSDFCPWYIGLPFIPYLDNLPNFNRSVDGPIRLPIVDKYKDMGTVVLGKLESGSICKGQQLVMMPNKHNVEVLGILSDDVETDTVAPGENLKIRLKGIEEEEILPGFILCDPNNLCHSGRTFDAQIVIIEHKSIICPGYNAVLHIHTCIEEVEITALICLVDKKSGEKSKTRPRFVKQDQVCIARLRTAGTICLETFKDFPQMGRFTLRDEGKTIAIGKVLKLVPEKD
Chain of GSPT1 (Q96SW2 whole entry): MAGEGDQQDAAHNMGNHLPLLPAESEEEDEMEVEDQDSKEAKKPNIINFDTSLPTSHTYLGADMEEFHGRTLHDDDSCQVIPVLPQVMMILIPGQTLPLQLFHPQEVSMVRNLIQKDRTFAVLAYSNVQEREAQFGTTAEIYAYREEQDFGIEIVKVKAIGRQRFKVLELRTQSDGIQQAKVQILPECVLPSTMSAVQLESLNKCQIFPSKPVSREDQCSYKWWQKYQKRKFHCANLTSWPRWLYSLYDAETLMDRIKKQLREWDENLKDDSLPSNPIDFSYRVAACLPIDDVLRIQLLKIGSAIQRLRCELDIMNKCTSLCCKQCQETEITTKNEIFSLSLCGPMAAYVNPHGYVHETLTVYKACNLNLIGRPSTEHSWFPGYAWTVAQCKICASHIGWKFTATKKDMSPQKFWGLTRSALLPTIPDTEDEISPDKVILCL
Chain of GSPT1 (Q16531 whole entry partner): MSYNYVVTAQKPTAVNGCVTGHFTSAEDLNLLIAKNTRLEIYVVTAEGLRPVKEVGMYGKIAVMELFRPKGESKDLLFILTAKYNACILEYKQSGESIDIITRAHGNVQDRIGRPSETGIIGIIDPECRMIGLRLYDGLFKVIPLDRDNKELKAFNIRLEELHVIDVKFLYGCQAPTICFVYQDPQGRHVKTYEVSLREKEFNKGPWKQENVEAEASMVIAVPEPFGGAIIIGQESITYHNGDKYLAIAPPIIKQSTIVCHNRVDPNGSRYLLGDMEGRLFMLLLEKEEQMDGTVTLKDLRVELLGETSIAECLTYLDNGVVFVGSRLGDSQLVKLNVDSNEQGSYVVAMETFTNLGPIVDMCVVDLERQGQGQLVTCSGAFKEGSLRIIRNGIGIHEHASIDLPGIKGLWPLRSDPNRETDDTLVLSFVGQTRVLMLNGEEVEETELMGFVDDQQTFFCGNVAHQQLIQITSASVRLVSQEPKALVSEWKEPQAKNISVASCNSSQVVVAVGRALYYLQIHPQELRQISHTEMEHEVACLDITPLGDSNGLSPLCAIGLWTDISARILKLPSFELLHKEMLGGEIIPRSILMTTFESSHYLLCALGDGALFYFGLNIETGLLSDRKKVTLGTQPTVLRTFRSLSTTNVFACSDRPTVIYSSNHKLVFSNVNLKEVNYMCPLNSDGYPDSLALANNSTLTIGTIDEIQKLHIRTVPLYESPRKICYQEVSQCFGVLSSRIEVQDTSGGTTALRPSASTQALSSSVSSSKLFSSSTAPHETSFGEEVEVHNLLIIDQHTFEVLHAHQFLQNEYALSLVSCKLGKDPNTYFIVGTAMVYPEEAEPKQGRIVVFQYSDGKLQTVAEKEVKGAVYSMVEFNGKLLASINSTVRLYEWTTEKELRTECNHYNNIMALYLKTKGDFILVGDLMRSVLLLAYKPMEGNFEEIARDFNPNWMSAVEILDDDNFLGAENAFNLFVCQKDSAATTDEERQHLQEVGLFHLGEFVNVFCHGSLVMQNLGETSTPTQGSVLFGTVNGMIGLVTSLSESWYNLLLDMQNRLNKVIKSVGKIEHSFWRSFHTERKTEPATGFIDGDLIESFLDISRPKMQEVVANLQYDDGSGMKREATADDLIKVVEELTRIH

| SMILES | toxicity in cell lines [1] | degradation of GSPT1 [2] | IC50 [3, 6] | IC50 [3, 7] | Sensitivity of FLT3-mutant AML cells to GSPT1 degrader upon FLT3 inhibition [3] | potency combined with gilteritinib, cell growth inhibition [4] | IC50 [5, 8] | IC50 [5, 9] | IC50 [3, 10] | IC50 [3, 11] | IC50 [5, 12] | IC50 [5, 13] |
| --- | --- | --- | --- | --- | --- | --- | --- | --- | --- | --- | --- | --- |
| Cc1ccc(NC(=O)NCc2ccc3c(c2)CN(C2CCC(=O)NC2=O)C3=O)cc1Cl (stereo not drawn) [CC-885] | significant toxicity in the vast majority of tested cell lines | cereblon-dependent degradation of GSPT1 | – | – | – | – | – | – | – | – | – | – |
| O=C1CCC(N2C(=O)c3ccc(NCCCCCC(=O)N4CCC(n5cc(-c6cnc7cccc(Br)c7n6)cn5)CC4)cc3C2=O)C(=O)N1 (stereo not drawn) [GS-002, 5-((6-(4-(4-(8-bromoquinoxalin-2-yl)-1H-pyrazol-1-yl)piperidin-1-yl)-6-oxohexyl)amino)-2-(2,6-dioxopiperidin-3-yl)isoindoline-1,3-dione] | – | – | 1.9 nM | 583 nM | remarkably increases sensitivity | significantly improved | 3 nM | 227 nM | – | – | – | – |
| O=C1CCC(N2C(=O)c3ccc(NCCCCCC(=O)N4CCC(n5cc(-c6cnc7ccccc7n6)cn5)CC4)cc3C2=O)C(=O)N1 (stereo not drawn) [GS-005, 2-(2,6-dioxopiperidin-3-yl)-5-((6-oxo-6-(4-(4-(quinoxalin-2-yl)-1H-pyrazol-1-yl)piperidin-1-yl)hexyl)amino)isoindoline-1,3-dione] | – | – | 0.2 nM | 11.8 nM | remarkably increases sensitivity | significantly improved | 1.8 nM | 6 nM | – | – | – | – |
| O=C1CCC(N2C(=O)c3ccc(NCCCCCC(=O)N4CCC(n5cc(-c6ccc7ccccc7n6)cn5)CC4)cc3C2=O)C(=O)N1 (stereo not drawn) [GS-006, 2-(2,6-dioxopiperidin-3-yl)-5-((6-oxo-6-(4-(4-(quinolin-2-yl)-1H-pyrazol-1-yl)piperidin-1-yl)hexyl)amino)isoindoline-1,3-dione] | – | – | 0.3 nM | 29 nM | remarkably increases sensitivity | significantly improved | 4.6 nM | 12 nM | – | – | – | – |
| Cc1nc(-c2cn([C@H]3C[C@H](CNc4ccc5c(c4)C(=O)N(C4CCC(=O)NC4=O)C5=O)C3)nc2C(F)F)ccc1F (stereo partly drawn) [GS-635, 5-(((trans-3-(3-(Difluoromethyl)-4-(5-fluoro-6-methylpyridin-2-yl)-1H-pyrazol-1-yl)cyclobutyl)methyl)amino)-2-(2,6-dioxopiperidin-3-yl)isoindoline-1,3-dione] | – | – | – | – | – | – | – | – | 10 to 100 nM | < 10 nM | 10 to 100 nM | < 10 nM |
| Cc1cccc(-c2cn([C@H]3C[C@H](CNc4ccc5c(c4)C(=O)N(C4CCC(=O)NC4=O)C5=O)C3)nc2C(=O)N(C)C)n1 (stereo partly drawn) [GS-636, 1-(trans-3-(((2-(2,6-dioxopiperidin-3-yl)-1,3-dioxoisoindolin-5-yl)amino)methyl)cyclobutyl)-N,N-dimethyl-4-(6-methylpyridin-2-yl)-1H-pyrazole-3-carboxamide] | – | – | – | – | – | – | – | – | > 1000 nM | > 1000 nM | > 1000 nM | > 1000 nM |
| CNC(=O)c1nn([C@H]2C[C@H](CNc3ccc4c(c3)C(=O)N(C3CCC(=O)NC3=O)C4=O)C2)cc1-c1cccc(C)n1 (stereo partly drawn) [GS-637, 1-(trans-3-(((2-(2,6-dioxopiperidin-3-yl)-1,3-dioxoisoindolin-5-yl)amino)methyl)cyclobutyl)-N-methyl-4-(6-methylpyridin-2-yl)-1H-pyrazole-3-carboxamide] | – | – | – | – | – | – | – | – | 100 to 1000 nM | 10 to 100 nM | 10 to 100 nM | < 10 nM |
| Cc1cccc(-c2cn([C@H]3C[C@H](CNc4ccc5c(c4)C(=O)N(C4CCC(=O)NC4=O)C5=O)C3)nc2C2CCNCC2)n1 (stereo partly drawn) [GS-638, 2-(2,6-Dioxopiperidin-3-yl)-5-(((trans-3-(4-(6-methylpyridin-2-yl)-3-(piperidin-4-yl)-1H-pyrazol-1-yl)cyclobutyl)methyl)amino)isoindoline-1,3-dione] | – | – | – | – | – | – | – | – | > 1000 nM | > 1000 nM | > 1000 nM | > 1000 nM |
| Cc1nn([C@H]2C[C@H](CCCNc3ccc4c(c3)C(=O)N(C3CCC(=O)N(C)C3=O)C4=O)C2)cc1-c1cnc2ccccc2n1 (stereo partly drawn) [GS-639, 2-(1-Methyl-2,6-dioxopiperidin-3-yl)-5-((3-(trans-3-(3-methyl-4-(quinoxalin-2-yl)-1H-pyrazol-1-yl)cyclobutyl)propyl)amino)isoindoline-1,3-dione] | – | – | – | – | – | – | – | – | > 1000 nM | > 1000 nM | > 1000 nM | > 1000 nM |
| CCc1nc(C(N)=O)c(Nc2ccc(N3CCC(N4CCN(C)CC4)CC3)c(OC)c2)nc1NC1CCOCC1 [gilteritinib, reference compound] | – | – | – | 7 nM | – | – | – | 2.3 nM | – | – | – | – |
